Like-named read-outs stand apart in the source and are kept apart here.

Experiment [1] relates to early alcohol-induced liver injury. An excerpt:
(§1) Animals and Treatments. Female Wistar rats weighing between 200 and 275 g were fed ad libitum continuously for up to 4 weeks a liquid diet (Dyets, Bethlehem, Pa. #710034) in which 35% of the calories were from corn oil, […], 5% were from vitamins and minerals, 11% were from maltose-dextrin, and 36% were from ethanol. An isocaloric maltose-dextrin diet (Dyets, #710270) was used for control. Rats were given a single dose of ethanol (5 g/kg body weight intragastrically) using an 18-gauge oral biomedical device (Popper & Sons, Inc., New Hyde Park, N.Y.) diluted in PBS (pH 7.2; GIBCO Laboratories Life Technologies Inc., Grand Island, N.Y.) every 24 hours. Control animals were gavaged with PBS alone. Either histamine dihydrochloride (0.5 mg/kg or 5.0 mg/kg; Sigma Chemical Co., St. Louis, Mo.) or vehicle (PBS, pH 7.4; GIBCO Laboratories Life Technologies Inc., Grand Island, N.Y.) was administered by subcutaneous injection twice daily for 4 weeks. Body weights of each rat were measured daily. Rats were housed in a pathogen-free facility and the institutional animal care and use committee approved the surgical procedures used in this study.
Pathological Evaluation. After 2 and 4 weeks of ethanol treatment, livers were formalin fixed, embedded in paraffin, and stained with hematoxylin and eosin to assess steatosis, inflammation, and necrosis. Liver pathology was scored in a blinded manner by an outside expert as follows:
1. Degree of steatosis, score 0-4 (based on % of hepatocytes containing lipid)
2. Degree of inflammatory cell infiltration, score 0-4
3. Degree of degeneration and necrosis, score 0-4
The points for each grade of histological evaluation were compiled into a total score for each liver.
Severity scores for each finding in each group were summed and then divided by the number of animals evaluated per group. The groups were assigned scores as follows: None=0; […].

The conditions of experiment [2]: both histamine treated groups versus ethanol alone treated group.
Source text: as §1

The subject of experiment [3] is early alcohol-induced liver injury.
Source text: as §1
The source holds these as a separate data set.

The subject of experiment [4] is CD3+T-cells, CD3-/56+ NK-cells and CD3+/56+ NK/T-cells. As to conditions: all cell types; induced by autologous monocytes or granulocytes; p<0.001. An excerpt: (§2) This example illustrates the effect of histamine on the lymphocytes isolated from human liver. […] All data are the mean±s.e.m. (n=15-30 blood donors).
Experiment [5] has as its system drug-induced liver damage. The conditions noted are these: oral tablet with isoniazid, six to twelve months, versus isoniazid alone. The protocol:
An individual presenting with tuberculosis is prescribed an oral tablet comprising isoniazid and an effective dose of histamine for a period of six to twelve months. During the treatment period, the patient is monitored by a physician and lab tests to check the status of the patient's liver in response to the medication are performed.

Experiment [6] is described as follows: Effect of the duration of administration of histamine. The conditions noted are these: administered over longer than about 30 minutes.
Experiment [7] relates to hepatotoxic effect of comfrey. Kind of experiment: Catalase supplement in an individual consuming comfrey. Type of experiment: in vivo, human. As to conditions: 8 mg/day. As to the method:
The common herb comfrey can be administered as a poultice or tea drink to as an expectorant, demulcent, and/or tonic. However, consumption of comfrey has been linked to liver damage. In order to minimize the hepatotoxic effect of comfrey, an individual consuming comfrey as an herbal remedy is supplemented with 8 mg/day of catalase.

Experiment [8] has as its system drug-induced liver damage. The conditions noted are these: daily oral dose of 10 mg, patient on phenytoin three times a day. As to the method: An epileptic taking phenytoin three times a day to control seizures is supplemented with a daily oral dose of 10 mg of histamine dihydrochloride. Prior to supplementation with histamine dihydrochloride, the epileptic experiences liver damage as a consequence of taking phenytoin as confirmed by liver biopsy.

Experiment [9] relates to hepatic tissue damage secondary to pancreatitis. The conditions noted are these: 100 μg/kg per day over one to two weeks, acute pancreatitis. The protocol: A patient presenting with acute pancreatitis is identified. The patient is administered 100 μg/kg histamine diphosphate per day over a period of one to two weeks. A liver biopsy is performed upon resolution of the pancreatitis.

For experiment [10], the system named is NK-cells. As to conditions: 25 μM hydrogen peroxide, n=8, mean±s.e.m.
Source text: as §2

For experiment [11], the system named is NK/T-cells. As to conditions: 25 μM hydrogen peroxide, n=8, mean±s.e.m.
Source text: as §2

The subject of experiment [12] is T-cells. The conditions noted are these: 25 μM hydrogen peroxide, n=8, mean±s.e.m.
Source text: as §2

In the case of `NCCc1c[nH]cn1` [Histamine, histamine], in experiment [1] (0.5 mg/kg or 5 mg/kg twice daily s.c., highest dose most effective), the liver injury entry is given as “blunted liver injury in a dose dependent manner”. Besides, the “Histologic Findings in Liver, Mean Group Severity Scores, Total Overall Score” value in [1] (High Histamine (5.0 mg/kg s.c. twice daily), Week 2 of ethanol treatment) stood at 2.00; in experiment [1] (High Histamine (5.0 mg/kg s.c. twice daily), Week 4 of ethanol treatment) it was 2.57; in experiment [1] (Low Histamine (0.5 mg/kg s.c. twice daily), Week 2 of ethanol treatment), 3.33; in experiment [1] (Low Histamine (0.5 mg/kg s.c. twice daily), Week 4 of ethanol treatment) it was 3.17. Besides, the “appearance of excised livers” value in [1] (histamine treated, ethanol-fed rats) is listed as “comparative in appearance to livers from the non-ethanol treated group”. In addition, the “recovery of body weight” value in [2] was “recovered their body weights more quickly”. Moreover, the “pathology scores and serum transaminase levels” value in experiment [3] (0.5 mg/kg or 5 mg/kg twice daily s.c.) was “normalization”. Besides, in experiment [3] (preliminary results, ethanol control group 2-3 fold increase), the ALT activity entry is reported as “somewhat normal ALT activity”. For the same compound, in experiment [4], the apoptosis of lymphocytes result is reported as “significantly prevented”. The “liver damage by laboratory tests” value in [5] is “no damage to the patient's liver”. Also, the efficacy result in experiment [6] is “decreased or lack of efficacy”.

As for catalase, the hepatic injury result in [7] was “No hepatic injury is observed”.

With `Cl.Cl.NCCc1c[nH]cn1` [histamine dihydrochloride], the liver damage result in experiment [8] is reported as “further damage to the tissue of the liver is prevented”.

Consider histamine diphosphate, for which, in [9], the “damage to hepatic tissue (liver biopsy)” value is “prevents damage to hepatic tissue” and the “incidence of infection associated with pancreatitis” value is reported as “lowers the incidence of infection associated with pancreatitis”.

Consider `OO` [hydrogen peroxide], for which the “cells that became apoptotic” value in experiment [10] was 65±7%; in experiment [11], 78±7%; in experiment [12], 35±5%.

Values taken from patent publication US20030091553A1 (priority 2001, published 2003).
